Test results: ChEMBL document CHEMBL4052648, “Synthesis and evaluation of c-di-4'-thioAMP as an artificial ligand for c-di-AMP riboswitch” (Bioorg Med Chem, 2017)

What was measured:
[1] = Drug level treated with c-di-4'-thioAMP assessed as recombinant Bacillus subtilis YybT-mediated metabolite formation at 100 uM by LRMS analysis; type: ADME
[2] = Binding affinity to Bacillus substilis 5'-32p-labelled 165 nucleotide RNA assessed as reduction in RNA cleavage measured within 40 hrs by PAGE analysis; design: species or system Bacillus subtilis; details: read-out: Kd(app)
[3] = Drug metabolism assessed as recombinant Bacillus subtilis YybT-mediated compound degradation by measuring retention time at 100 uM by reversed-phase HPLC analysis; type: ADME
[4] = Drug metabolism assessed as recombinant Bacillus subtilis YybT-mediated ((2R,3S,4R,5R)-5-(6-amino-9H-purin-9-yl)-3-((((2R,3S,4R,5R)-5-(6-amino-9H-purin-9-yl)-3,4-dihydroxytetrahydrothiophen-2-yl)methoxy)(hydroxy)phosphoryloxy)-4-hydroxytetrahydrothiophen-2-yl)methyl dihydrogen phosphate formation at 100 uM by LRMS analysis; type: ADME
YybT = assay: Drug metabolism assessed as recombinant Bacillus subtilis YybT-mediated compound hydrolysis by measuring half life at 100 uM by reversed-phase HPLC method; type: ADME; details: recombinant Bacillus subtilis YybT enzyme

Row | Drug metabolism [1] | Kd [2] [µM] | Retention_time [3] [min] | Drug metabolism [4] | half-life at 100 µM (YybT) [h] | Compound
1 | Metabolite_Detected | – | – | – | – | Nc1ncnc2c1ncn2[C@@H]1S[C@H](COP(=O)(O)O[C@H]2[C@@H](O)[C@H](n3cnc4c(N)ncnc43)S[C@@H]2COP(=O)(O)O)[C@@H](O)[C@H]1O
2 | – | 34.8 | 12.3 | Metabolite_Detected | > 12 | Nc1ncnc2c1ncn2[C@@H]1S[C@@H]2COP(=O)(O)O[C@H]3[C@@H](O)[C@H](n4cnc5c(N)ncnc54)S[C@@H]3COP(=O)(O)O[C@H]2[C@H]1O
3 | – | ≤ 0.0033 | – | – | 1 | Nc1ncnc2c1ncn2[C@@H]1O[C@@H]2CO[P@@](=O)(O)O[C@H]3[C@@H](O)[C@H](n4cnc5c(N)ncnc54)O[C@@H]3CO[P@@](=O)(O)O[C@H]2[C@H]1O
